Reference: patent US20230183226A1, “AKT3 MODULATORS” (Georgiamune LLC, priority 2020, published 2023)
pEC50: −log10 of the molar value.

Biological target: Akt3 (Homo sapiens, UniProt Q9Y243)
Assay: Akt3 inhibition and activation activity (Foxp3 induction assay / Jurkat-FoxP3 luciferase reporter assay)
Assay type: cell-based
Conditions: Table 2
Experimental: Sorted or enriched (Miltenyi magnetic separation) CD4 conventional T cells (Tconvs−CD4+/CD25) from C57/Bl6 mice were used for the induction of iTregs. A 10 µg/mL plate-bound anti-CD3 antibody (50 ul per well for 96-well plate), […] of soluble anti-CD28 antibody, 100 IU/mL of IL2 and 5 ng/mL of TGF-β in absence or presence of different concentrations of drug (usually titrating from 0.01 uM to 10 uM) were used. As negative control for induction, samples without TGF-β were used.
After 3 days of culture in presence of stimulation, TGF-β and drug, cells were stained with fixable live/dead cell stain (Life Technologies, NY) for gating and exclusion of toxic doses. The mouse Foxp3 buffer kit was used to fix and permeabilize cells according to the manufacturer's instructions (BD Bioscience, San Jose, Calif.). The anti-CD4 antibody and anti-Foxp3 antibody were used to stain the cells. After staining, cells were acquired using flow cytometer.
Cells Culture Process: Prepare a 50 ml conical tube and a T-25 culture flask with 5 ml of pre-warmed Thaw Medium 2 (no G418). Quickly thaw cells in a 37° C. water bath with constant and slow agitation. Immediately transfer the entire contents to the conical tube with Thaw Medium 2 (no G418) and centrifuge the cells at 200×g for 3 minutes.

Akt3, sequence (Q9Y243 2-479): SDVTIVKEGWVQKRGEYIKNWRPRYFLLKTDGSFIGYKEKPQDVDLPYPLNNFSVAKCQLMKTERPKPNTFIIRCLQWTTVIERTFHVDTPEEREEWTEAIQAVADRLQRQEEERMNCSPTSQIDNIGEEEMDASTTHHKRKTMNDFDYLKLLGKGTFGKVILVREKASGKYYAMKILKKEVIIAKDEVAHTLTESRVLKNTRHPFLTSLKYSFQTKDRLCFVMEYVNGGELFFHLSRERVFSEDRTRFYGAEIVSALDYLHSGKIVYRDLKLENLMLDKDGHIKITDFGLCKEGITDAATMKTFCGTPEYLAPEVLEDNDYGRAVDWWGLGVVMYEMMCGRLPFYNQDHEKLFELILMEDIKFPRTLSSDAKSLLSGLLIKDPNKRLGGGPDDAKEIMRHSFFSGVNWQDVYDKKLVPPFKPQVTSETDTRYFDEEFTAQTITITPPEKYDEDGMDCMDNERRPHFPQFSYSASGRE

Substance: 6-(2,6-dimethylmorpholino)-2-methyl-N-(4-(5-(2-methylpyridin-4-ylamino)-1H-benzo[d]imidazol-2-yl)phenyl)quinolin-4-amine [Compound 128]
- pEC50: > 7.30
